Results on 20 compounds are retold here after US9902702B2, “Spirocycloheptanes as inhibitors of rock” (BRISTOL-MYERS SQUIBB COMPANY, priority 2014, dated 2018).

The target of this assay is ROCK2 (Homo sapiens, UniProt O75116). The assay is described as follows: ROCK assay: phosphorylation of FITC peptide substrate, LABCHIP 3000 mobility shift. Particulars: 5 μM ATP, 1.5 μM peptide substrate; read-out: ROCK2 Activity (ROCK IC50 range). In kind it is biochemical. The method, boiled down: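 Rho kinase variant phosphorylates 1.5 μM FITC-AHA-AKRRRLSSLRA-OH with 5 μM ATP in 20 mM HEPES pH 7.5, 20 mM MgCl2, 0.015% Brij-35, 4 mM DTT, DMSO <2%. EDTA stops the reaction, and phospho and non-phospho peptides are resolved by LabChip 3000 mobility shift. IC50 from dose-response curve fit.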
Chain of ROCK2 (O75116 whole entry, species assumed): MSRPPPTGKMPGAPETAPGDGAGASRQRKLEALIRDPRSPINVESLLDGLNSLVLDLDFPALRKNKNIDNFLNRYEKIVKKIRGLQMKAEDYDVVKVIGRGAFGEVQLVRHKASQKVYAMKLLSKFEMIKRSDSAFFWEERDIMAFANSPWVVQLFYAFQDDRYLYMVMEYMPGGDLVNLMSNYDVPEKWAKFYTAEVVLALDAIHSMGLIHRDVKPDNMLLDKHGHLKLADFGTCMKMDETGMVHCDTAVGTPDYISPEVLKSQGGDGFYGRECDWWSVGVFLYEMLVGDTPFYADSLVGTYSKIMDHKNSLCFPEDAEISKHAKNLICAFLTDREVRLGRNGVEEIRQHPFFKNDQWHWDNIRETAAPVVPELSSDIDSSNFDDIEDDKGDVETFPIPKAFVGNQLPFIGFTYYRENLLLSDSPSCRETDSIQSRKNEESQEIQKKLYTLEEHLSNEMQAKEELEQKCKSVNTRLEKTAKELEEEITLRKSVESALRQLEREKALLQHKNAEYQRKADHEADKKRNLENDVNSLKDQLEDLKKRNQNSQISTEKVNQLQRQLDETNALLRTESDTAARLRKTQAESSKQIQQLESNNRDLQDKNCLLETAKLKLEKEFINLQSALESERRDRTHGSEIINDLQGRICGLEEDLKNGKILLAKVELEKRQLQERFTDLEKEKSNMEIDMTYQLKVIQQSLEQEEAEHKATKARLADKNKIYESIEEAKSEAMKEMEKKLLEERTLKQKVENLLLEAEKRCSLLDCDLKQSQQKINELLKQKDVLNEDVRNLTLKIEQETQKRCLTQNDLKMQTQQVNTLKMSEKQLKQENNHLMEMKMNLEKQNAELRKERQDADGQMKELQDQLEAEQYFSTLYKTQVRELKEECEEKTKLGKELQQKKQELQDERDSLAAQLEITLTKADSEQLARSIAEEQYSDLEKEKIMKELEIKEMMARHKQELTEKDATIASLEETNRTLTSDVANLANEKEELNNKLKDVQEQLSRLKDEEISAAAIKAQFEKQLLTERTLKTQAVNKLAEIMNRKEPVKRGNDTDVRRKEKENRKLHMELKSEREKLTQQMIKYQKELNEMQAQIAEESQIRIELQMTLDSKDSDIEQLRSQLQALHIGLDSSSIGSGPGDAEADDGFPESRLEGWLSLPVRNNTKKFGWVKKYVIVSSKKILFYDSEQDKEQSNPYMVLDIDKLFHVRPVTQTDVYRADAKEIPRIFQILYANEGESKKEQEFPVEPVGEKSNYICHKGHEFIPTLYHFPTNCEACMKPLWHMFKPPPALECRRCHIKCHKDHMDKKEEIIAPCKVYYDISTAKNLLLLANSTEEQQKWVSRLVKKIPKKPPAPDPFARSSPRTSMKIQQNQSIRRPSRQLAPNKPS
In the case of `O=C(NC1CC2(C1)CC(c1n[nH]c(=O)c3ccccc13)C2)c1cnn2cc(-c3cnn(C4CCOCC4)c3)ccc12` [Example 222, N-((aR)-6-(4-oxo-3,4-dihydrophthalazin-1-yl)spiro[3.3]heptan-2-yl)-6-(1-(tetrahydro-2H-pyran-4-yl)-1H-pyrazol-4-yl)pyrazolo[1,5-a]pyridine-3-carboxamide], the IC50 is 0.2 to 2 nM. Consider `Cn1cc(-c2ccc3c(C(=O)NC4CC5(C4)CC(c4n[nH]c(=O)c6ccccc46)C5)cnn3c2)c(C(F)(F)F)n1` [Example 223, 6-(1-methyl-3-(trifluoromethyl)-1H-pyrazol-4-yl)-N-((aR)-6-(4-oxo-3,4-dihydrophthalazin-1-yl)spiro[3.3]heptan-2-yl)pyrazolo[1,5-a]pyridine-3-carboxamide], for which the half-maximal inhibitory concentration (IC50) was in the range of 0.2 to 2 nM. `CC(C)n1cc(-c2ccc3c(C(=O)NC4CC5(C4)CC(c4n[nH]c(=O)c6ccccc46)C5)cnn3c2)c(C(F)(F)F)n1` [Example 224, 6-(1-isopropyl-3-(trifluoromethyl)-1H-pyrazol-4-yl)-N-((aR)-6-(4-oxo-3,4-dihydrophthalazin-1-yl)spiro[3.3]heptan-2-yl)pyrazolo[1,5-a]pyridine-3-carboxamide]: the 50% inhibitory concentration (IC50) fell in the range of 0.2 to 2 nM.

`CC(C)(C)n1cc(-c2ccc3c(C(=O)NC4CC5(C4)CC(c4n[nH]c(=O)c6ccccc46)C5)cnn3c2)cn1` [Example 225, 6-(1-(tert-butyl)-1H-pyrazol-4-yl)-N-((aR)-6-(4-oxo-3,4-dihydrophthalazin-1-yl)spiro[3.3]heptan-2-yl)pyrazolo[1,5-a]pyridine-3-carboxamide]: the half-maximal inhibitory concentration (IC50) fell in the range of 0.2 to 2 nM. `O=C(NC1CC2(C1)CC(c1n[nH]c(=O)c3ccccc13)C2)c1cnn2cc(-c3cnn(C4CCOC4)c3)ccc12` [Example 226, N-((aR)-6-(4-oxo-3,4-dihydrophthalazin-1-yl)spiro[3.3]heptan-2-yl)-6-(1-(tetrahydrofuran-3-yl)-1H-pyrazol-4-yl)pyrazolo[1,5-a]pyridine-3-carboxamide]: the IC50 lay within 0.2 to 2 nM. With `O=C(Nc1ccc(Br)cc1)N[C@H]1CC2(C1)C[C@H](c1n[nH]c(=O)c3ccccc31)C2` (stereo partly drawn) [Example 227, 1-(4-bromophenyl)-3-((aR)-6-(4-oxo-3,4-dihydrophthalazin-1-yl)spiro[3.3]heptan-2-yl)urea], the concentration for half-maximal inhibition (IC50) fell in the range of 15.1 to 100 nM. In the case of `Cn1cc(-c2ccc(NC(=O)NC3CC4(C3)CC(c3n[nH]c(=O)c5ccccc35)C4)cc2)cn1` [Example 228, 1-(4-(1-methyl-1H-pyrazol-4-yl)phenyl)-3-((aR)-6-(4-oxo-3,4-dihydrophthalazin-1-yl)spiro[3.3]heptan-2-yl)urea] it was 5.1 to 15 nM. For `[2H]C([2H])([2H])n1cc(-c2ccc(NC(=O)NC3CC4(C3)CC(c3n[nH]c(=O)c5ccccc35)C4)cc2)cn1` [Example 229, 1-(4-(1-(^2H3)methyl-1H-pyrazol-4-yl)phenyl)-3-((aR)-6-(4-oxo-3,4-dihydrophthalazin-1-yl)spiro[3.3]heptan-2-yl)urea], the IC50 lay in the range of 5.1 to 15 nM. In the case of `O=C(Nc1ccc(-c2cnn(C3CC3)c2)cc1)NC1CC2(C1)CC(c1n[nH]c(=O)c3ccccc13)C2` [Example 230, 1-(4-(1-cyclopropyl-1H-pyrazol-4-yl)phenyl)-3-((aR)-6-(4-oxo-3,4-dihydrophthalazin-1-yl)spiro[3.3]heptan-2-yl)urea] it was 15.1 to 100 nM; in that of `O=C(Nc1ccc(-c2cnn(C3CCOCC3)c2)cc1)NC1CC2(C1)CC(c1n[nH]c(=O)c3ccccc13)C2` [Example 231, 1-((aR)-6-(4-oxo-3,4-dihydrophthalazin-1-yl)spiro[3.3]heptan-2-yl)-3-(4-(1-(tetrahydro-2H-pyran-4-yl)-1H-pyrazol-4-yl)phenyl)urea], 15.1 to 100 nM; in that of `Cn1cc(-c2ccc(NC(=O)NC3CC4(C3)CC(c3n[nH]c(=O)c5ccccc35)C4)cc2)c(C(F)(F)F)n1` [Example 232, 1-(4-(1-methyl-3-(trifluoromethyl)-1H-pyrazol-4-yl)phenyl)-3-((aR)-6-(4-oxo-3,4-dihydrophthalazin-1-yl)spiro[3.3]heptan-2-yl)urea], 5.1 to 15 nM. On to `Cc1nn(C)c(C)c1-c1ccc(NC(=O)NC2CC3(C2)CC(c2n[nH]c(=O)c4ccccc24)C3)cc1` [Example 233, 1-((aR)-6-(4-oxo-3,4-dihydrophthalazin-1-yl)spiro[3.3]heptan-2-yl)-3-(4-(1,3,5-trimethyl-1H-pyrazol-4-yl)phenyl)urea], for which the IC50 lay within 5.1 to 15 nM. In the case of `O=C(N[C@H]1CC2(C1)C[C@H](c1n[nH]c(=O)c3ccccc31)C2)N1CCc2cc(Br)ccc21` (stereo partly drawn) [Example 234, 5-Bromo-N-((aR)-6-(4-oxo-3,4-dihydrophthalazin-1-yl)spiro[3.3]heptan-2-yl)indoline-1-carboxamide], the half-maximal inhibitory concentration (IC50) lay in the range of 2.01 to 5 nM. Consider `Cn1cc(-c2ccc3c(c2)CCN3C(=O)NC2CC3(C2)CC(c2n[nH]c(=O)c4ccccc24)C3)cn1` [Example 235, 5-(1-methyl-1H-pyrazol-4-yl)-N-((aR)-6-(4-oxo-3,4-dihydrophthalazin-1-yl)spiro[3.3]heptan-2-yl)indoline-1-carboxamide], for which the IC50 was in the range of 0.2 to 2 nM. With `O=C(NC1CC2(C1)CC(c1n[nH]c(=O)c3ccccc13)C2)N1CCc2cc(-c3cnn(C4CC4)c3)ccc21` [Example 236, 5-(1-cyclopropyl-1H-pyrazol-4-yl)-N-((aR)-6-(4-oxo-3,4-dihydrophthalazin-1-yl)spiro[3.3]heptan-2-yl)indoline-1-carboxamide], the concentration for half-maximal inhibition (IC50) lay in the range of 0.2 to 2 nM. `Cc1nn(C)c(C)c1-c1ccc2c(c1)CCN2C(=O)NC1CC2(C1)CC(c1n[nH]c(=O)c3ccccc13)C2` [Example 237, N-((aR)-6-(4-oxo-3,4-dihydrophthalazin-1-yl)spiro[3.3]heptan-2-yl)-5-(1,3,5-trimethyl-1H-pyrazol-4-yl)indoline-1-carboxamide]: the half-maximal inhibitory concentration (IC50) lay in the range of 2.01 to 5 nM. For `Cn1cc(-c2ccc3c(c2)CCN3C(=O)NC2CC3(C2)CC(c2n[nH]c(=O)c4ccccc24)C3)c(C(F)(F)F)n1` [Example 238, 5-(1-methyl-3-(trifluoromethyl)-1H-pyrazol-4-yl)-N-((aR)-6-(4-oxo-3,4-dihydrophthalazin-1-yl)spiro[3.3]heptan-2-yl)indoline-1-carboxamide], the half-inhibitory concentration (IC50) lay within 2.01 to 5 nM. With `[2H]C([2H])([2H])n1cc(-c2ccc3c(c2)CCN3C(=O)NC2CC3(C2)CC(c2n[nH]c(=O)c4ccccc24)C3)cn1` [Example 239, 5-(1-(^2H3)methyl-1H-pyrazol-4-yl)-N-((aR)-6-(4-oxo-3,4-dihydrophthalazin-1-yl)spiro[3.3]heptan-2 yl)indoline-1-carboxamide], the IC50 is 0.2 to 2 nM. In the case of `O=C(NC1CC2(C1)CC(c1n[nH]c(=O)c3ccccc13)C2)N1CCc2cc(-c3cnn(C4CCOCC4)c3)ccc21` [Example 240, N-((aR)-6-(4-oxo-3,4-dihydrophthalazin-1-yl)spiro[3.3]heptan-2-yl)-5-(1-(tetrahydro-2H-pyran-4-yl)-1H-pyrazol-4-yl)indoline-1-carboxamide] it was 2.01 to 5 nM; in that of `O=C(NC1CC2(C1)CC(c1n[nH]c(=O)c3ccccc13)C2)N1CCc2cc(-c3cnn(CC4CC4)c3)ccc21` [Example 241, 5-(1-(cyclopropylmethyl)-1H-pyrazol-4-yl)-N-((aR)-6-(4-oxo-3,4-dihydrophthalazin-1-yl)spiro[3.3]heptan-2-yl)indoline-1-carboxamide], 2.01 to 5 nM.
